Assay results published in the supplement of paper PMC6045584.
± gives the standard deviation of the averaged measurements.

Columns and labels:
[1] = compound: COc1ccc(-c2cc3c(C)nc(N)nc3n([C@H]3CC[C@H](OCCO)CC3)c2=O)cn1; experiment: surviving fraction relative to DMSO-only wells; higher = less growth inhibition; settings: exposure time: 5 days
In short: (§1)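 Inhibitors at 0.5, 1, 5, 10, 50, 100, 500 and 1000 nM were applied continuously for five days to tumour cell lines seeded in log phase at 250–500 cells per well in 384-well plates 24 hours earlier. Viability was measured by CellTiter-Glo luminescence and expressed as surviving fraction relative to the median of DMSO-only wells. Luminescence was taken after 10 minutes at room temperature.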

[2] = compound: CCc1cc(Nc2nccc(-c3c(-c4ccc(OC)c(C(=O)Nc5c(F)cccc5F)c4)nc4ccccn34)n2)c(OC)cc1N1CCC(N2CCN(S(C)(=O)=O)CC2)CC1; experiment: as above; settings: exposure time: 5 days
In short: as §1

Row | Test System | surviving fraction ([1]; 0.5 nM) | surviving fraction ([1]; 1 nM) | surviving fraction ([1]; 5 nM) | surviving fraction ([1]; 10 nM) | surviving fraction ([1]; 50 nM) | surviving fraction ([1]; 100 nM) | surviving fraction ([1]; 500 nM) | surviving fraction ([1]; 1000 nM) | surviving fraction ([2]; 0.5 nM) | surviving fraction ([2]; 1 nM) | surviving fraction ([2]; 5 nM) | surviving fraction ([2]; 10 nM) | surviving fraction ([2]; 50 nM) | surviving fraction ([2]; 100 nM) | surviving fraction ([2]; 500 nM) | surviving fraction ([2]; 1000 nM)
1 | PCI30 HEADNECK | 0.935 ± 0.034 | 0.947 ± 0.079 | 0.902 ± 0.023 | 0.963 ± 0.1 | 0.716 ± 0.028 | 0.495 ± 0.033 | 0.181 ± 0.004 | 0.151 ± 0.0076 | 0.889 ± 0.028 | 0.961 ± 0.15 | 1 ± 0.064 | 1.04 ± 0.045 | 0.947 ± 0.054 | 1.07 ± 0.032 | 0.989 ± 0.065 | 0.979 ± 0.065
2 | T47D BREAST | 0.993 ± 0.043 | 0.975 ± 0.021 | 0.959 ± 0.02 | 0.913 ± 0.013 | 0.638 ± 0.018 | 0.414 ± 0.022 | 0.196 ± 0.0079 | 0.148 ± 0.0018 | 1.06 ± 0.042 | 1.04 ± 0.027 | 1.05 ± 0.031 | 1.07 ± 0.016 | 1.06 ± 0.056 | 1.14 ± 0.051 | 1.03 ± 0.036 | 0.997 ± 0.014
3 | COLO320DM LARGE INTESTINE | 1.07 ± 0.051 | 1.08 ± 0.08 | 0.994 ± 0.05 | 0.906 ± 0.029 | 0.5533 ± 0.0034 | 0.383 ± 0.037 | 0.215 ± 0.0076 | 0.18 ± 0.0044 | 1.08 ± 0.04 | 1.18 ± 0.11 | 1.17 ± 0.06 | 1.19 ± 0.071 | 1.19 ± 0.09 | 1.14 ± 0.095 | 1.11 ± 0.061 | 0.892 ± 0.041
4 | HCC1806 BREAST | 1.08 ± 0.14 | 1.1 ± 0.042 | 1.12 ± 0.18 | 1.05 ± 0.094 | 0.993 ± 0.059 | 0.754 ± 0.1 | 0.366 ± 0.037 | 0.215 ± 0.0097 | 1.05 ± 0.032 | 0.985 ± 0.042 | 1.04 ± 0.025 | 1.05 ± 0.1 | 0.993 ± 0.1 | 1.03 ± 0.13 | 0.93 ± 0.13 | 0.904 ± 0.085
5 | HSSYII SYNOVIAL | 0.926 ± 0.034 | 0.941 ± 0.07 | 0.821 ± 0.045 | 0.789 ± 0.036 | 0.502 ± 0.006 | 0.329 ± 0.014 | 0.12 ± 0.0097 | 0.093 ± 0.0052 | 0.917 ± 0.021 | 0.933 ± 0.033 | 1.01 ± 0.047 | 0.951 ± 0.045 | 0.915 ± 0.043 | 0.958 ± 0.037 | 0.899 ± 0.034 | 0.798 ± 0.021
6 | MFM223 BREAST | 1.09 ± 0.086 | 1.1 ± 0.063 | 1.04 ± 0.061 | 0.993 ± 0.079 | 0.674 ± 0.071 | 0.432 ± 0.016 | 0.127 ± 0.012 | 0.0725 ± 0.0048 | 1.14 ± 0.05 | 1.15 ± 0.036 | 1.1 ± 0.08 | 1.15 ± 0.027 | 1.15 ± 0.012 | 1.21 ± 0.06 | 1.19 ± 0.033 | 1.05 ± 0.079
7 | MDAMB468 BREAST | 0.971 ± 0.045 | 0.965 ± 0.12 | 0.989 ± 0.024 | 1 ± 0.078 | 0.857 ± 0.019 | 0.733 ± 0.021 | 0.255 ± 0.019 | 0.0787 ± 0.0084 | 0.909 ± 0.09 | 1.04 ± 0.053 | 1.12 ± 0.047 | 1.14 ± 0.041 | 1.04 ± 0.091 | 1.17 ± 0.073 | 1.04 ± 0.07 | 1.06 ± 0.041
8 | HCC78 LUNG | 0.928 ± 0.31 | 0.845 ± 0.15 | 0.653 ± 0.27 | 0.588 ± 0.17 | 0.28 ± 0.048 | 0.104 ± 0.0093 | 0.022 ± 0.0044 | 0.0197 ± 0.0023 | 0.893 ± 0.21 | 0.819 ± 0.18 | 0.91 ± 0.14 | 0.859 ± 0.05 | 0.899 ± 0.32 | 0.864 ± 0.051 | 0.653 ± 0.19 | 0.657 ± 0.14
9 | NCIH441 LUNG | 1.03 ± 0.068 | 1.03 ± 0.071 | 1.06 ± 0.064 | 0.966 ± 0.058 | 0.886 ± 0.048 | 0.789 ± 0.028 | 0.425 ± 0.021 | 0.412 ± 0.015 | 0.964 ± 0.035 | 0.977 ± 0.13 | 0.99 ± 0.029 | 0.989 ± 0.059 | 0.997 ± 0.04 | 1.07 ± 0.065 | 0.917 ± 0.072 | 0.979 ± 0.092
10 | CADOES1 SOFT TISSUE | 0.956 ± 0.11 | 0.921 ± 0.061 | 0.911 ± 0.058 | 0.781 ± 0.045 | 0.633 ± 0.11 | 0.49 ± 0.025 | 0.193 ± 0.033 | 0.12 ± 0.0096 | 0.983 ± 0.048 | 0.983 ± 0.065 | 0.892 ± 0.12 | 0.885 ± 0.04 | 0.87 ± 0.1 | 1.05 ± 0.12 | 1.06 ± 0.12 | 1.08 ± 0.042
